# Source: ChEMBL document CHEMBL1157077, “Gneyulins A and B, stilbene trimers, and noidesols A and B, dihydroflavonol-C-glucosides, from the bark of Gnetum gnemonoides” (J Nat Prod, 2010)
# Legend:
# [1] = target: T1, Sodium/glucose cotransporter 2 (Homo sapiens, UniProt P31639); experiment: Inhibition of SGLT2 transfected in african green monkey COS1 cells assessed as alpha-D-[U-14C]glucopyranoside uptake after 30 mins by scintillation counting; type: cell-based, COS-1
# T1 sequence (P31639 whole entry): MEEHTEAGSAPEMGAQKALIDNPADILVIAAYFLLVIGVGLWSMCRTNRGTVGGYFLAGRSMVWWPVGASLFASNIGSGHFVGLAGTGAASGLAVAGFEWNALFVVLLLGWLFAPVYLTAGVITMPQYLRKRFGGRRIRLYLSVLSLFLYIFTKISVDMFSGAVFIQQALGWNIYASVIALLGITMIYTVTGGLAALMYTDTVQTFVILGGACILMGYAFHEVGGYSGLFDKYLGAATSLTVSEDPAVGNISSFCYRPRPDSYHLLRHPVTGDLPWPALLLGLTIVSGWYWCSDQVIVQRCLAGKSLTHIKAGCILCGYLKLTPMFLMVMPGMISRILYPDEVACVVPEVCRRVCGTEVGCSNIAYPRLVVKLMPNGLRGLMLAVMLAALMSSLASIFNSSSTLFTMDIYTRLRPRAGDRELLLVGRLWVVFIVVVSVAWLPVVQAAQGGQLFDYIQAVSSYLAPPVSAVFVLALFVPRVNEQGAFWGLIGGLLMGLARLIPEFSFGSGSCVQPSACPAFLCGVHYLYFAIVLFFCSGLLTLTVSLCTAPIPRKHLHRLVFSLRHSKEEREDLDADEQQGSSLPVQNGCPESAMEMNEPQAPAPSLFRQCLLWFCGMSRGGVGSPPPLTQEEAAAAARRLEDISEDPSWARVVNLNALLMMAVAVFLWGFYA
# [2] = target: T2, Sodium/glucose cotransporter 1 (Homo sapiens, UniProt P13866); experiment: Inhibition of SGLT1 transfected in african green monkey COS1 cells assessed as alpha-D-[U-14C]glucopyranoside uptake after 30 mins by scintillation counting; type: cell-based, COS-1
# T2 sequence (P13866 whole entry): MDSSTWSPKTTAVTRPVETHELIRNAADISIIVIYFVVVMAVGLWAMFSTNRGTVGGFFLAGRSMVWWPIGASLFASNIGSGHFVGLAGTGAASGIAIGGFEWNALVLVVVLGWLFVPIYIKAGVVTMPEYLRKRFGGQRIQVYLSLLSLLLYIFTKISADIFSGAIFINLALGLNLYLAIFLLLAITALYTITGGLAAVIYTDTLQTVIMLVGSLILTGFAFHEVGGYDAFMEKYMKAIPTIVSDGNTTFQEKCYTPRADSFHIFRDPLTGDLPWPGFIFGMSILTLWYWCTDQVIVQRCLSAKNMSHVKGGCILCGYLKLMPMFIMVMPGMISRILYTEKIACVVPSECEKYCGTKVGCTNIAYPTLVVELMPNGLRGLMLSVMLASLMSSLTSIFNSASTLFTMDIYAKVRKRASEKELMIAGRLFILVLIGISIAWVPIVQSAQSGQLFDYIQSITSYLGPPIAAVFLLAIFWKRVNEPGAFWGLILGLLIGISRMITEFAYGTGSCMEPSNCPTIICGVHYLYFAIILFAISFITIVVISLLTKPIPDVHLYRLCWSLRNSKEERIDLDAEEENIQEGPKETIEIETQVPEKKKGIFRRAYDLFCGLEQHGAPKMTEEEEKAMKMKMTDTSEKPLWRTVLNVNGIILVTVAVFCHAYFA
IC50 ([1]; read-out: IC50) [µM],IC50 ([2]; read-out: IC50) [µM],IC50 ([1]; cos-1),IC50 ([2]; cos-1),Structure (SMILES)
18,37,,,Oc1cc(O)cc([C@@H]2c3cc([C@@H]4Oc5cc(-c6cc7ccc(O)cc7o6)cc(O)c5[C@H]4c4cc(O)cc(O)c4)c(O)cc3O[C@H]2c2ccc(O)cc2O)c1 [GNEYULIN B]
,,Not Active,Not Active,COc1cc(O)c2c(c1[C@@H]1O[C@H](CO)[C@@H](O)[C@H](O)[C@H]1O)O[C@H](c1ccc(O)c(O)c1)[C@@H](O)C2=O [NOIDESOL A]
25,27,,,Oc1cc(O)cc([C@@H]2c3cc([C@@H]4Oc5cc(/C=C/c6ccc(O)cc6O)cc(O)c5[C@H]4c4cc(O)cc(O)c4)c(O)cc3O[C@H]2c2ccc(O)cc2O)c1 [GNEYULIN A]
,,Not Active,Not Active,COc1ccc([C@H]2Oc3cc(O)c([C@@H]4O[C@H](CO)[C@@H](O)[C@H](O)[C@H]4O)c(O)c3C(=O)[C@@H]2O)cc1O [NOIDESOL B]
